In ChEMBL document CHEMBL5518209, “Caltrop-like Small-Molecule Antidotes That Neutralize Unfractionated Heparin and Low-Molecular-Weight Heparin In Vivo” (J Med Chem, 2024):
Calls of active or inactive are those of the source. No cut-off for these calls is given here.

Tests used:
Bos taurus [1] = species on record: Bos taurus; test: Neutralization of nadroparin calcium in bovine plasma at 10 to 60 ug/ml by aPTT assay; assay type: cell-free; conditions: dose 10-60 µg/ml
Bos taurus [2] = species on record: Bos taurus; test: Neutralization of enoxaparin sodium in bovine plasma at 10 to 60 ug/ml by aPTT assay; assay type: cell-free; conditions: dose 10-60 µg/ml
Bos taurus [3] = species on record: Bos taurus; test: Neutralization of unfractionated heparin in bovine plasma at 10 to 60 ug/ml by aPTT assay; assay type: cell-free; conditions: dose 10-60 µg/ml
Bos taurus [4] = species on record: Bos taurus; test: Neutralization of dalteparin sodium in bovine plasma at 10 to 60 ug/ml by aPTT assay; assay type: cell-free; conditions: dose 10-60 µg/ml
[5] = Acute toxicity in iv dosed ICR mouse assessed as maximum tolerated dose measured after 7 days; assay type: organism-based; conditions: in vivo, time 7 day
Bos taurus [6] = species on record: Bos taurus; test: Neutralization of unfractionated heparin in bovine plasma at 10 to 60 ug/ml by aPTT assay relative to control; assay type: cell-free; conditions: dose 10-60 µg/ml
Bos taurus [7] = species on record: Bos taurus; test: Neutralization of dalteparin sodium in bovine plasma at 10 to 60 ug/ml by aPTT assay relative to control; assay type: cell-free; conditions: dose 10-60 µg/ml
Homo sapiens [8] = species on record: Homo sapiens; test: Neutralization of dalteparin sodium in human poor platelet plasma at 10 to 50 ug/ml by aPTT assay relative to control; assay type: cell-free; conditions: dose 10-50 µg/ml
Bos taurus [9] = species on record: Bos taurus; test: Neutralization of enoxaparin sodium in bovine plasma at 10 to 60 ug/ml by aPTT assay relative to control; assay type: cell-free; conditions: dose 10-60 µg/ml
Homo sapiens [10] = species on record: Homo sapiens; test: Neutralization of unfractionated heparin in human poor platelet plasma at 10 to 50 ug/ml by aPTT assay relative to control; assay type: cell-free; conditions: dose 10-50 µg/ml
Homo sapiens [11] = species on record: Homo sapiens; test: Neutralization of enoxaparin sodium in human poor platelet plasma at 10 to 50 ug/ml by aPTT assay relative to control; assay type: cell-free; conditions: dose 10-50 µg/ml
[12] = Binding affinity to dalteparin sodium in saline at pH 7.4 assessed as change in enthalpy by ITC analysis
[13] = Binding affinity to unfractionated heparin in saline at pH 7.4 assessed as change in entropy by ITC analysis
[14] = Binding affinity to nadroparin calcium in saline at pH 7.4 assessed as binding constant by ITC analysis
[15] = Binding affinity to unfractionated heparin in saline at pH 7.4 assessed as binding constant by ITC analysis
[16] = Binding affinity to unfractionated heparin in saline at pH 7.4 assessed as change in enthalpy by ITC analysis
Homo sapiens [17] = species on record: Homo sapiens; test: Neutralization of dalteparin sodium in human poor platelet plasma at 10 to 50 ug/ml by aPTT assay; assay type: cell-free; conditions: dose 10-50 µg/ml
[18] = Binding affinity to dalteparin sodium in saline at pH 7.4 assessed as binding constant by ITC analysis
[19] = Binding affinity to enoxaparin sodium in saline at pH 7.4 assessed as change in gibbs free energy by ITC analysis
[20] = Binding affinity to enoxaparin sodium in saline at pH 7.4 assessed as binding constant by ITC analysis
[21] = Binding affinity to dalteparin sodium in saline at pH 7.4 assessed as change in entropy by ITC analysis
Erythrocyte [22] = test: Hemolytic activity in Sprague-Dawley rat red blood cells at 256 ug/ml; assay type: toxicity, cell-based; conditions: dose 256 µg/ml
[23] = Binding affinity to nadroparin calcium in saline at pH 7.4 assessed as change in gibbs free energy by ITC analysis
[24] = Binding affinity to dalteparin sodium in saline at pH 7.4 assessed as change in gibbs free energy by ITC analysis
[25] = Binding affinity to nadroparin calcium in saline at pH 7.4 assessed as change in enthalpy by ITC analysis
[26] = Blood compatibility in bovine plasma assessed as activated partial thromboplastin time at <23 ug/ml by turbidimetry method; assay type: toxicity, cell-free, Bos taurus; conditions: cattle, dose < 23 µg/ml
[27] = Binding affinity to nadroparin calcium in saline at pH 7.4 assessed as change in entropy by ITC analysis
[28] = Binding affinity to enoxaparin sodium in saline at pH 7.4 assessed as change in enthalpy by ITC analysis
[29] = Binding affinity to enoxaparin sodium in saline at pH 7.4 assessed as change in entropy by ITC analysis
[30] = Binding affinity to unfractionated heparin in saline at pH 7.4 assessed as change in gibbs free energy by ITC analysis
Erythrocyte [31] = test: Hemolytic activity in human red blood cells at 256 ug/ml; assay type: toxicity, cell-based; conditions: dose 256 µg/ml
Erythrocyte [32] = test: Hemolytic activity in human red blood cells at 512 ug/ml; assay type: toxicity, cell-based; conditions: dose 512 µg/ml
[33] = Blood compatibility in bovine plasma assessed as activated partial thromboplastin time at <54 ug/ml by turbidimetry method; assay type: toxicity, cell-free, Bos taurus; conditions: cattle, dose < 54 µg/ml
Erythrocyte [34] = test: Hemolytic activity in Sprague-Dawley rat red blood cells at 512 ug/ml; assay type: toxicity, cell-based; conditions: dose 512 µg/ml
Homo sapiens [35] = species on record: Homo sapiens; test: Reversal of anticoagulation of nadroparin calcium in human whole blood assessed as minimum effective dose incubated for 5 mins by thromboelastography; assay type: tissue-based
Homo sapiens [36] = species on record: Homo sapiens; test: Neutralization of enoxaparin sodium in human poor platelet plasma at 10 to 50 ug/ml by aPTT assay; assay type: cell-free; conditions: dose 10-50 µg/ml
Homo sapiens [37] = species on record: Homo sapiens; test: Reversal of anticoagulation of dalteparin sodium in human whole blood assessed as minimum effective dose incubated for 5 mins by thromboelastography; assay type: tissue-based
Homo sapiens [38] = species on record: Homo sapiens; test: Reversal of anticoagulation of enoxaparin sodium in human whole blood assessed as minimum effective dose incubated for 5 mins by thromboelastography; assay type: tissue-based
Homo sapiens [39] = species on record: Homo sapiens; test: Reversal of anticoagulation of unfractionated heparin in human whole blood assessed as minimum effective dose incubated for 5 mins by thromboelastography; assay type: tissue-based
Bos taurus [40] = species on record: Bos taurus; test: Neutralization of nadroparin calcium in bovine plasma at 10 to 60 ug/ml by aPTT assay relative to control; assay type: cell-free; conditions: dose 10-60 µg/ml

NCCOc1ccc2c[n+](Cc3ccc(C(c4ccc(C[n+]5ccc6cc(OCCN)ccc6c5)cc4)(c4ccc(C[n+]5ccc6cc(OCCN)ccc6c5)cc4)c4ccc(C[n+]5ccc6cc(OCCN)ccc6c5)cc4)cc3)ccc2c1
Activity (Bos taurus [1]): Active | Activity (Bos taurus [2]): Active | Activity (Bos taurus [3]): Active | Activity (Bos taurus [4]): Active

NCCSc1ccc(-c2cc[n+](Cc3ccc(C(c4ccc(C[n+]5ccc(-c6ccc(SCCN)cc6)cc5)cc4)(c4ccc(C[n+]5ccc(-c6ccc(SCCN)cc6)cc5)cc4)c4ccc(C[n+]5ccc(-c6ccc(SCCN)cc6)cc5)cc4)cc3)cc2)cc1.[Cl-].[Cl-].[Cl-].[Cl-]
Activity (Bos taurus [1]): Active | Activity (Bos taurus [2]): Active | Activity (Bos taurus [3]): Active | MTD at 168 h [5]: 8 mg/kg | Activity (Bos taurus [4]): Active

COc1ccc(-c2cc[n+](Cc3ccc(C(c4ccc(C[n+]5ccc(-c6ccc(OC)cc6)cc5)cc4)(c4ccc(C[n+]5ccc(-c6ccc(OC)cc6)cc5)cc4)c4ccc(C[n+]5ccc(-c6ccc(OC)cc6)cc5)cc4)cc3)cc2)cc1
Activity (Bos taurus [1]): inactive | Activity (Bos taurus [2]): inactive | Activity (Bos taurus [3]): inactive | Activity (Bos taurus [4]): inactive

NCC(=O)Nc1ccc(-c2cc[n+](Cc3ccc(C(c4ccc(C[n+]5ccc(-c6ccc(NC(=O)CN)cc6)cc5)cc4)(c4ccc(C[n+]5ccc(-c6ccc(NC(=O)CN)cc6)cc5)cc4)c4ccc(C[n+]5ccc(-c6ccc(NC(=O)CN)cc6)cc5)cc4)cc3)cc2)cc1.[Cl-].[Cl-].[Cl-].[Cl-]
Activity (Bos taurus [6]): > 98% | Activity (Bos taurus [1]): Active | Activity (Bos taurus [7]): > 98% | Activity (Homo sapiens [8]): > 98% | Activity (Bos taurus [9]): > 98% | Activity (Bos taurus [2]): Active | Activity (Homo sapiens [10]): > 98% | Activity (Bos taurus [3]): Active | Activity (Homo sapiens [11]): > 98% | MTD at 168 h [5]: 8 mg/kg | Activity (Bos taurus [4]): Active

c1cc[n+](Cc2ccc(C(c3ccc(C[n+]4ccccc4)cc3)(c3ccc(C[n+]4ccccc4)cc3)c3ccc(C[n+]4ccccc4)cc3)cc2)cc1
Activity (Bos taurus [1]): inactive | Activity (Bos taurus [2]): inactive | Activity (Bos taurus [3]): inactive | Activity (Bos taurus [4]): inactive

NCCOc1cc(-c2cc[n+](Cc3ccc(C(c4ccc(C[n+]5ccc(-c6cc(OCCN)c(OCCN)c(OCCN)c6)cc5)cc4)(c4ccc(C[n+]5ccc(-c6cc(OCCN)c(OCCN)c(OCCN)c6)cc5)cc4)c4ccc(C[n+]5ccc(-c6cc(OCCN)c(OCCN)c(OCCN)c6)cc5)cc4)cc3)cc2)cc(OCCN)c1OCCN.[Cl-].[Cl-].[Cl-].[Cl-]
deltaH [12]: -4.86 kcal/mol | -TdeltaS [13]: -3.64 kcal/mol | Ka [14]: 5.43e+06 M⁻¹ | Ka [15]: 3.72e+06 M⁻¹ | deltaH [16]: -5.33 kcal/mol | Activity (Homo sapiens [17]): Active | Ka [18]: 7.09e+06 M⁻¹ | deltaG [19]: -9.12 kcal/mol | Ka [20]: 4.85e+06 M⁻¹ | -TdeltaS [21]: -4.48 kcal/mol | Activity (Erythrocyte [22]): Non-Toxic | deltaG [23]: -9.19 kcal/mol | deltaG [24]: -9.35 kcal/mol | deltaH [25]: -4.83 kcal/mol | APTT [26]: 23 s | -TdeltaS [27]: -4.37 kcal/mol | MTD at 168 h [5]: 20 mg/kg | deltaH [28]: -5.63 kcal/mol | Activity (Bos taurus [4]): Active | -TdeltaS [29]: -3.49 kcal/mol | deltaG [30]: -8.97 kcal/mol | Activity (Erythrocyte [31]): Non-Toxic

NCCOc1ccc(-c2cc[n+](Cc3ccc(C(c4ccc(C[n+]5ccc(-c6ccc(OCCN)cc6)cc5)cc4)(c4ccc(C[n+]5ccc(-c6ccc(OCCN)cc6)cc5)cc4)c4ccc(C[n+]5ccc(-c6ccc(OCCN)cc6)cc5)cc4)cc3)cc2)cc1.[Cl-].[Cl-].[Cl-].[Cl-]
deltaH [12]: -4.53 kcal/mol | -TdeltaS [13]: -4.43 kcal/mol | Ka [14]: 5e+06 M⁻¹ | Activity (Erythrocyte [32]): Non-Toxic | APTT [33]: 23 s | Activity (Erythrocyte [34]): Non-Toxic | Ka [15]: 4.72e+06 M⁻¹ | deltaH [16]: -4.67 kcal/mol | Ka [18]: 8.77e+06 M⁻¹ | deltaG [19]: -9.09 kcal/mol | Ka [20]: 4.61e+06 M⁻¹ | -TdeltaS [21]: -4.94 kcal/mol | Activity (Bos taurus [2]): Active | MED (Homo sapiens [35]): 10 µg/mL | deltaG [23]: -9.15 kcal/mol | deltaG [24]: -9.47 kcal/mol | Activity (Homo sapiens [36]): Active | MED (Homo sapiens [37]): 10 µg/mL | deltaH [25]: -4.38 kcal/mol | -TdeltaS [27]: -4.77 kcal/mol | MTD at 168 h [5]: 17.5 mg/kg | deltaH [28]: -5.87 kcal/mol | MED (Homo sapiens [38]): 10 µg/mL | -TdeltaS [29]: -3.23 kcal/mol | MED (Homo sapiens [39]): 12 µg/mL | deltaG [30]: -9.11 kcal/mol

NCCOc1ccc(-n2cc[n+](Cc3ccc(C(c4ccc(C[n+]5ccn(-c6ccc(OCCN)cc6)c5)cc4)(c4ccc(C[n+]5ccn(-c6ccc(OCCN)cc6)c5)cc4)c4ccc(C[n+]5ccn(-c6ccc(OCCN)cc6)c5)cc4)cc3)c2)cc1
Activity (Bos taurus [1]): Active | Activity (Bos taurus [2]): Active | Activity (Bos taurus [3]): Active | Activity (Bos taurus [4]): Active

NCCCOc1ccc(-c2cc[n+](Cc3ccc(C(c4ccc(C[n+]5ccc(-c6ccc(OCCCN)cc6)cc5)cc4)(c4ccc(C[n+]5ccc(-c6ccc(OCCCN)cc6)cc5)cc4)c4ccc(C[n+]5ccc(-c6ccc(OCCCN)cc6)cc5)cc4)cc3)cc2)cc1.[Cl-].[Cl-].[Cl-].[Cl-]
Activity (Bos taurus [6]): > 98% | Activity (Bos taurus [1]): Active | Activity (Bos taurus [40]): > 86% | Activity (Bos taurus [7]): > 98% | Activity (Homo sapiens [8]): > 98% | Activity (Bos taurus [9]): > 98% | Activity (Bos taurus [2]): Active | Activity (Homo sapiens [10]): > 98% | Activity (Bos taurus [3]): Active | Activity (Homo sapiens [11]): > 98% | MTD at 168 h [5]: 15 mg/kg | Activity (Bos taurus [4]): Active

Cn1cc[n+](Cc2ccc(C(c3ccc(C[n+]4ccn(C)c4)cc3)(c3ccc(C[n+]4ccn(C)c4)cc3)c3ccc(C[n+]4ccn(C)c4)cc3)cc2)c1
Activity (Bos taurus [1]): inactive | Activity (Bos taurus [2]): inactive | Activity (Bos taurus [3]): inactive | Activity (Bos taurus [4]): inactive
